Legend:
[1] = molecular target: T1, p-AXL (Homo sapiens, UniProt P30530); experiment: Axl phosphorylation inhibition ELISA in HEK293T cells transfected with NanoLuc-tagged AXL; format: cell-based; conditions: 1 h compound incubation, media (OptiMEM)
T1 construct: expressed in transfected cells; host or cells: HEK293T
T1 sequence (P30530 26-894): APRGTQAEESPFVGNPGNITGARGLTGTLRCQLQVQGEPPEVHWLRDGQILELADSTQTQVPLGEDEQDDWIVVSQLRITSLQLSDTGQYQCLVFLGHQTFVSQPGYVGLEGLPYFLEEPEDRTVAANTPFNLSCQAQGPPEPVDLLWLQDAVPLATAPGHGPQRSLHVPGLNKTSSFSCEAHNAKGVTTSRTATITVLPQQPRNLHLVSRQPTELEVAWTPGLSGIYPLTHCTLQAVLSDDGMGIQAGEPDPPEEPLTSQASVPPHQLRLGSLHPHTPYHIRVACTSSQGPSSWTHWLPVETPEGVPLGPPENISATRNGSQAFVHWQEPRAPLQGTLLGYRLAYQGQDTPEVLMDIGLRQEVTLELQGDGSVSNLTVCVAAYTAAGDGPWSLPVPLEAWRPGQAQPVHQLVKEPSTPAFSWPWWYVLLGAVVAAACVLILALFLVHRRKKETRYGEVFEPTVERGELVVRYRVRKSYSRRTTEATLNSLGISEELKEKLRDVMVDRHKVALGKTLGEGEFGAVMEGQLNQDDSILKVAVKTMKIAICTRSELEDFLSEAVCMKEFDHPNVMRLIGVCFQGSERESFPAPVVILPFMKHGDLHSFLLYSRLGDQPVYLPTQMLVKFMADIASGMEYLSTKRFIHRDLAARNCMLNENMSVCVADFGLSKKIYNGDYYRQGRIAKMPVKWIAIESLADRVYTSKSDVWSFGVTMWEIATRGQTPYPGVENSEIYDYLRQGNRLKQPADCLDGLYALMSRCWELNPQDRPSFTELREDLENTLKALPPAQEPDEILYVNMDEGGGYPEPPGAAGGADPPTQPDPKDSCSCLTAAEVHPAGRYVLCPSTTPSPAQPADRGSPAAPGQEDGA
Summary of the method: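 Phospho-AXL detected by luminescence of NanoLuc tag after capture of cell lysate on biotinylated anti-phospho-tyrosine mAb plates (2 h). Lysates came from transiently transfected HEK293T cells treated 1 h at 37° C with serial 2-fold dilutions (22 points). IC50 by standard 4-parameter logistic fitting.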

[2] = molecular target: T2, Axl (Homo sapiens, UniProt P30530); experiment: Biochemical potency, HTRF KinEASE-TK kinase assay; set-up: purchased Invitrogen; conditions: 5 nM AXL, 700 μM ATP
T2 sequence (P30530 26-894): T1 sequence (P30530 26-894)
Summary of the method: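 Steps: compound plus kinase, 1 h RT; add ATP (700 µM final) and biotin-TK substrate (800 nM final); run 2 h RT; stop into streptavidin-XL665/anti-phospho cryptate detection mix, 1 h; read 665/620. AXL at 5 nM, TYRO3 and MER at 1 nM.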

IC50 [1] | IC50 [2] | Compound
< 100 nM | < 100 nM | Cc1cccnc1-c1ccc(-c2n[nH]c3ncc(-c4ccc5c(c4)CC[C@@](C)(N4CCC[C@H]4C)CC5)cc23)cc1 [Example 163, 3-Methyl-2-(4-{5-[(7S)-7-methyl-7-[(2R)-2-methylpyrrolidin-1-yl]-6,7,8,9-tetrahydro-5H-benzo[7]annulen-2-yl]-2H-pyrazolo[3,4-b]pyridin-3-yl}phenyl)pyridine]
100 to 1000 nM | < 100 nM | c1ccc(-c2ccc(-c3c[nH]c4ncc(-c5ccc6c(c5)CC[C@@H](N5C7COCC5C7)CC6)cc34)cc2)nc1 [Example 155, 6-[(7S)-2-{3-[4-(Pyridin-2-yl)phenyl]-1H-pyrrolo[2,3-b]pyridin-5-yl}-6,7,8,9-tetrahydro-5H-benzo[7]annulen-7-yl]-3-oxa-6-azabicyclo[3.1.1]heptane]
100 to 1000 nM | < 100 nM | O=c1ccccn1-c1ccc(-c2n[nH]c3ncc(-c4ccc5c(c4)CC[C@@H](N4C6COCC4C6)CC5)cc23)cc1 [Example 31, 1-[4-[5-[(7S)-7-(3-Oxa-6-azabicyclo[3.1.1]heptan-6-yl)-6,7,8,9-tetrahydro-5H-benzo[7]annulen-3-yl]-1H-pyrazolo[3,4-b]pyridin-3-yl]phenyl]pyridin-2-one]
< 100 nM | < 100 nM | O=C1OCCN1c1cccnc1-c1ccc(-c2n[nH]c3ncc(-c4ccc5c(c4)CC[C@@H](N4C6COCC4C6)CC5)cc23)cc1 [Example 121, 3-[2-(4-{5-[(7S)-7-{3-Oxa-6-azabicyclo[3.1.1]heptan-6-yl}-6,7,8,9-tetrahydro-5H-benzo[7]annulen-2-yl]-1H-pyrazolo[3,4-b]pyridin-3-yl}phenyl)pyridin-3-yl]-1,3-oxazolidin-2-one]
< 100 nM | < 100 nM | Cc1cccnc1-c1ccc(-c2c[nH]c3ncc(-c4ccc5c(c4)CC[C@@H](N4C6COCC4C6)CC5)cc23)nc1 [Example 96, 3-Methyl-6′-{5-[(7S)-7-{3-oxa-6-azabicyclo[3.1.1]heptan-6-yl}-6,7,8,9-tetrahydro-5H-benzo[7]annulen-2-yl]-1H-pyrrolo[2,3-b]pyridin-3-yl}-2,3′-bipyridine]
100 to 1000 nM | < 100 nM | Cn1nncc1-c1ccc(-c2n[nH]c3ncc(-c4ccc5c(c4)CC[C@@H](N4C6COCC4C6)CC5)cc23)cc1 [Example 13, 6-[(7S)-2-{3-[4-(1-Methyl-1H-1,2,3-triazol-5-yl)phenyl]-1H-pyrazolo[3,4-b]pyridin-5-yl}-6,7,8,9-tetrahydro-5H-benzo[7]annulen-7-yl]-3-oxa-6-azabicyclo[3.1.1]heptane]
< 100 nM | < 100 nM | Cn1nccc1-c1ccc(-c2n[nH]c3ncc(-c4ccc5c(c4)CC[C@@H](N4C6COCC4C6)CC5)cc23)cc1 [Example 109, 6-[(7S)-2-{3-[4-(1-Methyl-1H-pyrazol-5-yl)phenyl]-1H-pyrazolo[3,4-b]pyridin-5-yl}-6,7,8,9-tetrahydro-5H-benzo[7]annulen-7-yl]-3-oxa-6-azabicyclo[3.1.1]heptane]
< 100 nM | < 100 nM | Cc1cccnc1-c1ccc(-c2n[nH]c3ncc(-c4ccc5c(c4)CC[C@@H](N4C[C@@H]6C[C@H]4CO6)CC5)cc23)cc1 [Example 130, (1S,4S)-5-[(7S)-2-{3-[4-(3-Methylpyridin-2-yl)phenyl]-1H-pyrazolo[3,4-b]pyridin-5-yl}-6,7,8,9-tetrahydro-5H-benzo[7]annulen-7-yl]-2-oxa-5-azabicyclo[2.2.1]heptane]
< 100 nM | < 100 nM | CC(C)(O)c1cccnc1-c1ccc(-c2n[nH]c3ncc(-c4ccc5c(c4)CC[C@@H](N4C6COCC4C6)CC5)cc23)cc1 [Example 10, 2-[2-(4-{5-[(7S)-7-{3-Oxa-6-azabicyclo[3.1.1]heptan-6-yl}-6,7,8,9-tetrahydro-5H-benzo[7]annulen-2-yl]-1H-pyrazolo[3,4-b]pyridin-3-yl}phenyl)pyridin-3-yl]propan-2-ol]
100 to 1000 nM | < 100 nM | Cc1ccnc(-c2ccc(-c3n[nH]c4ncc(-c5ccc6c(c5)CC[C@@H](N5C7COCC5C7)CC6)cc34)cc2)c1 [Example 117, 6-[(7S)-2-{3-[4-(4-Methylpyridin-2-yl)phenyl]-1H-pyrazolo[3,4-b]pyridin-5-yl}-6,7,8,9-tetrahydro-5H-benzo[7]annulen-7-yl]-3-oxa-6-azabicyclo[3.1.1]heptane]
< 100 nM | < 100 nM | C[C@H]1COC(=O)N1c1cccnc1-c1ccc(-c2n[nH]c3ncc(-c4ccc5c(c4)CC[C@@H](N4C6COCC4C6)CC5)cc23)cc1 [Example 125, (4S)-4-Methyl-3-[2-(4-{5-[(7S)-7-{3-oxa-6-azabicyclo[3.1.1]heptan-6-yl}-6,7,8,9-tetrahydro-5H-benzo[7]annulen-2-yl]-1H-pyrazolo[3,4-b]pyridin-3-yl}phenyl)pyridin-3-yl]-1,3-oxazolidin-2-one]
> 1000 nM | < 100 nM | FC(F)(F)Oc1cccnc1-c1ccc(-c2c[nH]c3ncc(-c4ccc5c(c4)CC[C@@H](N4C6COCC4C6)CC5)cc23)cc1 [Example 103, 6-[(7S)-2-(3-{4-[3-(Trifluoromethoxy)pyridin-2-yl]phenyl}-1H-pyrrolo[2,3-b]pyridin-5-yl)-6,7,8,9-tetrahydro-5H-benzo[7]annulen-7-yl]-3-oxa-6-azabicyclo[3.1.1]heptane]
< 100 nM | < 100 nM | CN(C(=O)C1CC1)c1cccnc1-c1ccc(-c2n[nH]c3ncc(-c4ccc5c(c4)CC[C@@H](N4C6COCC4C6)CC5)cc23)cc1 [Example 128, N-Methyl-N-[2-(4-{5-[(7S)-7-{3-oxa-6-azabicyclo[3.1.1]heptan-6-yl}-6,7,8,9-tetrahydro-5H-benzo[7]annulen-2-yl]-1H-pyrazolo[3,4-b]pyridin-3-yl}phenyl)pyridin-3-yl]cyclopropanecarboxamide]
< 100 nM | < 100 nM | c1cnc(-c2ccc(-c3n[nH]c4ncc(-c5ccc6c(c5)CC[C@@H](N5C7COCC5C7)CC6)cc34)cc2)c(O[C@@H]2CCOC2)c1 [Example 104, 6-[(7S)-2-[3-(4-{3-[(3R)—Oxolan-3-yloxy]pyridin-2-yl}phenyl)-1H-pyrazolo[3,4-b]pyridin-5-yl]-6,7,8,9-tetrahydro-5H-benzo[7]annulen-7-yl]-3-oxa-6-azabicyclo[3.1.1]heptane]
< 100 nM | < 100 nM | COCCOc1cccnc1-c1ccc(-c2n[nH]c3ncc(-c4ccc5c(c4)CC[C@@H](N4C6COCC4C6)CC5)cc23)cc1 [Example 180, 6-[(7S)-2-(3-{4-[3-(2-Methoxyethoxy)pyridin-2-yl]phenyl}-1H-pyrazolo[3,4-b]pyridin-5-yl)-6,7,8,9-tetrahydro-5H-benzo[7]annulen-7-yl]-3-oxa-6-azabicyclo[3.1.1]heptane]
< 100 nM | < 100 nM | COc1cccnc1-c1ccc(-c2n[nH]c3ncc(-c4ccc5c(c4)CC[C@@H](N4C6COCC4C6)CC5)cc23)cc1 [Example 166, 6-[(7S)-2-{3-[4-(3-Methoxypyridin-2-yl)phenyl]-1H-pyrazolo[3,4-b]pyridin-5-yl}-6,7,8,9-tetrahydro-5H-benzo[7]annulen-7-yl]-3-oxa-6-azabicyclo[3.1.1]heptane]
< 100 nM | < 100 nM | CC(C)(O)c1ccccc1-c1ccc(-c2n[nH]c3ncc(-c4ccc5c(c4)CC[C@@H](N4C6COCC4C6)CC5)cc23)cn1 [Example 113, 2-[2-(5-{5-[(7S)-7-{3-Oxa-6-azabicyclo[3.1.1]heptan-6-yl}-6,7,8,9-tetrahydro-5H-benzo[7]annulen-2-yl]-1H-pyrazolo[3,4-b]pyridin-3-yl}pyridin-2-yl)phenyl]propan-2-ol]
< 100 nM | < 100 nM | OC1(c2cccnc2-c2ccc(-c3c[nH]c4ncc(-c5ccc6c(c5)CC[C@@H](N5C7COCC5C7)CC6)cc34)cc2)CCC1 [Example 22, 1-[2-[4-[5-[(7S)-7-(3-Oxa-6-azabicyclo[3.1.1]heptan-6-yl)-6,7,8,9-tetrahydro-5H-benzo[7]annulen-3-yl]-1H-pyrrolo[2,3-b]pyridin-3-yl]phenyl]pyridin-3-yl]cyclobutan-1-ol]

From patent US12195482B1 (Arcus Biosciences, Inc., priority 2022, dated 2025)
